Measurements from PubChem BioAssay AID330 (DTP/NCI, 2004).
Where “and” joins values, the source holds several entries; their conditions need not be identical. Identical values can stand only once. Inconclusive results and toxic doses are left out. How the source made its calls: active means survival T/C of 150% or more; inactive means T/C below 125% in these data.

System: P388 leukemia ip, CD2F1 mice, survival T/C
Assay: NCI In Vivo Anticancer Drug Screen. Data for tumor model P388 Leukemia (intraperitoneal) in CD2F1 (CDF1) mice
Conditions: endpoint: median survival time, higher = longer survival
In short: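 Mice carrying the transplanted tumor received test compound or vehicle. Survival was recorded in each group, and the value is the treated-group measurement divided by that of the vehicle-treated control group.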

[1] = dose: 25.0 mg/kg/injection, schedule: Q01DX005 (ip), vehicle: saline with Tween-80
[2] = dose: 100.0 mg/kg/injection, schedule: Q01DX005 (ip), vehicle: saline with Tween-80
[3] = dose: 200.0 mg/kg/injection, schedule: Q01DX005 (ip), vehicle: saline with Tween-80
[4] = dose: 100.0 mg/kg/injection, schedule: Q04DX003 (ip), vehicle: saline with Tween-80
[5] = dose: 200.0 mg/kg/injection, schedule: Q04DX003 (ip), vehicle: saline with Tween-80
[6] = dose: 50.0 mg/kg/injection, schedule: Q01DX005 (ip), vehicle: saline with Tween-80
[7] = dose: 100.0 mg/kg/injection, schedule: Q04DX002 (ip), vehicle: saline with Tween-80
[8] = dose: 50.0 mg/kg/injection, schedule: Q04DX002 (ip), vehicle: Klucel (hydroxypropylcellulose) (HPC)
[9] = dose: 100.0 mg/kg/injection, schedule: Q04DX002 (ip), vehicle: Klucel (hydroxypropylcellulose) (HPC)
[10] = dose: 60.0 mg/kg/injection, schedule: Q01DX005 (ip), vehicle: saline with Tween-80
[11] = dose: 120.0 mg/kg/injection, schedule: Q01DX005 (ip), vehicle: saline with Tween-80
[12] = dose: 240.0 mg/kg/injection, schedule: Q01DX005 (ip), vehicle: saline with Tween-80
[13] = dose: 100.0 mg/kg/injection, schedule: Q01DX009 (ip), vehicle: saline with Tween-80
[14] = dose: 200.0 mg/kg/injection, schedule: Q01DX009 (ip), vehicle: saline with Tween-80
[15] = dose: 50.0 mg/kg/injection, schedule: Q01DX009 (ip), vehicle: Klucel (hydroxypropylcellulose) (HPC)
[16] = dose: 100.0 mg/kg/injection, schedule: Q01DX009 (ip), vehicle: Klucel (hydroxypropylcellulose) (HPC)
[17] = dose: 200.0 mg/kg/injection, schedule: Q01DX009 (ip), vehicle: Klucel (hydroxypropylcellulose) (HPC)

Measured: T/C

O=C1c2cccc3cc([N+](=O)[O-])cc(c23)C(=O)N1Cc1cccnc1
inactive: dose: 6.25 mg/kg/injection, schedule: Q01DX005 (ip), vehicle: saline with Tween-80 100 % of control | dose: 12.5 mg/kg/injection, schedule: Q01DX005 (ip), vehicle: saline with Tween-80 96 % of control | [1] 92 % of control | [2] 92 % of control | [3] 101 % of control

COc1ccc(-c2cc(=O)c3c(O)cc(OC)cc3o2)cc1
inactive: [4] 95 % of control | [5] 90 % of control | dose: 400.0 mg/kg/injection, schedule: Q04DX003 (ip), vehicle: saline with Tween-80 90 % of control

Cc1ccc(C2OC2(C(=O)C=[N+]=[N-])c2ccccc2)cc1 (configuration not stated)
inactive: [1] 89 % of control | [6] 92 % of control | [2] 86 % of control | [3] 91 % of control

CSC(=S)/N=c1/sccn1C
inactive: dose: 25.0 mg/kg/injection, schedule: Q04DX002 (ip), vehicle: saline with Tween-80 100 % of control | dose: 50.0 mg/kg/injection, schedule: Q04DX002 (ip), vehicle: saline with Tween-80 100 % of control | [7] 99 % of control

NC(=O)N/N=C1/C=CC2(CC=CCC2)CC1 (configuration not stated)
inactive: dose: 100.0 mg/kg/injection, schedule: Q01DX001 (ip), vehicle: Klucel (hydroxypropylcellulose) (HPC) 90 % of control | dose: 200.0 mg/kg/injection, schedule: Q01DX001 (ip), vehicle: Klucel (hydroxypropylcellulose) (HPC) 104 % of control | dose: 400.0 mg/kg/injection, schedule: Q01DX001 (ip), vehicle: Klucel (hydroxypropylcellulose) (HPC) 90 % of control

CC(C)(C)[Si](C)(C)CC#C[Si](C)(C)C
inactive: [6] 104 % of control | [2] 103 % of control

Clc1ccc(-c2c(-c3ccccc3)c3n(c2Sc2ccccc2)CCC3)cc1
inactive: dose: 60.0 mg/kg/injection, schedule: Q01DX005 (ip), vehicle: Klucel (hydroxypropylcellulose) (HPC) 92 % of control | dose: 120.0 mg/kg/injection, schedule: Q01DX005 (ip), vehicle: Klucel (hydroxypropylcellulose) (HPC) 89 % of control | dose: 240.0 mg/kg/injection, schedule: Q01DX005 (ip), vehicle: Klucel (hydroxypropylcellulose) (HPC) 86 % of control

CCCCCCCCCCCCCCS[As](C)C
inactive: dose: 25.0 mg/kg/injection, schedule: Q04DX002 (ip), vehicle: Klucel (hydroxypropylcellulose) (HPC) 101 % of control | [8] 94 % of control | [9] 90 % of control and 92 % of control | dose: 400.0 mg/kg/injection, schedule: Q04DX002 (ip), vehicle: Klucel (hydroxypropylcellulose) (HPC) 91 % of control

CC1(C)OC(=O)C(Cc2ccco2)C(=O)O1
inactive: [7] 97 % of control | dose: 200.0 mg/kg/injection, schedule: Q04DX002 (ip), vehicle: saline with Tween-80 106 % of control | dose: 400.0 mg/kg/injection, schedule: Q04DX002 (ip), vehicle: saline with Tween-80 101 % of control

[N-]=[N+]=CC(=O)CCCCC1=CCCC1=O
inactive: dose: 31.75 mg/kg/injection, schedule: Q01DX001 (ip), vehicle: saline with Tween-80 103 % of control | dose: 63.5 mg/kg/injection, schedule: Q01DX001 (ip), vehicle: saline with Tween-80 93 % of control | dose: 127.0 mg/kg/injection, schedule: Q01DX001 (ip), vehicle: saline with Tween-80 94 % of control

O=C1OC[C@@H]2[C@H]1[C@H]1O[C@@H]2c2cc3ccccc3cc21
inactive: [10] 104 % of control | [11] 101 % of control | [12] 101 % of control

CCOCCSc1ccccc1
inactive: dose: 25.0 mg/kg/injection, schedule: Q01DX009 (ip), vehicle: saline with Tween-80 99 % of control | dose: 50.0 mg/kg/injection, schedule: Q01DX009 (ip), vehicle: saline with Tween-80 103 % of control | [13] 112 % of control | [14] 105 % of control

Nc1nc(N)c(NS(=O)(=O)c2ccccc2)c(=O)[nH]1
inactive: [10] 108 % of control | [11] 100 % of control | [12] 105 % of control

O=C(CC(=NCC(O)CN=C(CC(=O)c1ccccc1)c1ccccc1)c1ccccc1)c1ccccc1.[Ni] (configuration not stated)
inactive: dose: 25.0 mg/kg/injection, schedule: Q04DX003 (ip), vehicle: saline with Tween-80 94 % of control | dose: 50.0 mg/kg/injection, schedule: Q04DX003 (ip), vehicle: saline with Tween-80 94 % of control | [4] 87 % of control | [5] 86 % of control

Clc1ccc(Oc2ccc(N3C=Nc4ccc(Oc5ccc(Cl)cc5)cc4C3)cc2)cc1
inactive: [13] 110 % of control | [14] 100 % of control | dose: 400.0 mg/kg/injection, schedule: Q01DX009 (ip), vehicle: saline with Tween-80 115 % of control

CSc1cccc(NC(=O)Nc2ccc(S(N)(=O)=O)cc2)c1
inactive: [15] 92 % of control | [16] 87 % of control

COC(=O)C1=C(C(=O)OC)C2OC1C(COC(=O)NC1CCCCC1)=C2COC(=O)NC1CCCCC1
inactive: dose: 12.5 mg/kg/injection, schedule: Q01DX009 (ip), vehicle: distilled water + Tween-80 89 % of control | dose: 25.0 mg/kg/injection, schedule: Q01DX009 (ip), vehicle: distilled water + Tween-80 87 % of control | dose: 50.0 mg/kg/injection, schedule: Q01DX009 (ip), vehicle: distilled water + Tween-80 89 % of control | dose: 100.0 mg/kg/injection, schedule: Q01DX009 (ip), vehicle: distilled water + Tween-80 87 % of control | dose: 200.0 mg/kg/injection, schedule: Q01DX009 (ip), vehicle: distilled water + Tween-80 101 % of control

CSC(SC)(SC)c1cc(-c2c(Cl)cccc2Cl)no1
inactive: [6] 93 % of control | [2] 102 % of control | [3] 93 % of control

C1CCSCCCCCSCCCCCSCCCCCSCC1
inactive: [15] 97 % of control | [16] 96 % of control | [17] 94 % of control

NNS(=O)(=O)c1cc(C(=O)O)cc(C(=O)O)c1
inactive: dose: 100.0 mg/kg/injection, schedule: Q01DX001 (ip), vehicle: saline with Tween-80 109 % of control | dose: 200.0 mg/kg/injection, schedule: Q01DX001 (ip), vehicle: saline with Tween-80 100 % of control | dose: 400.0 mg/kg/injection, schedule: Q01DX001 (ip), vehicle: saline with Tween-80 90 % of control

Cc1ccc(C(C)C)cc1NC(=O)c1cccnc1
inactive: [8] 98 % of control | [9] 102 % of control | dose: 200.0 mg/kg/injection, schedule: Q04DX002 (ip), vehicle: Klucel (hydroxypropylcellulose) (HPC) 92 % of control

CC1=NN(C(=O)CC(=O)Nc2ccc(C(=O)O)cc2)C(=O)C1N=Nc1ccc(S(N)(=O)=O)cc1 (configuration not stated)
inactive: [6] 96 % of control | [2] 94 % of control | [3] 93 % of control

CCC(c1ccc(Cl)cc1)C(C#N)c1ccc(Cl)cc1 (configuration not stated)
inactive: [15] 108 % of control | [16] 104 % of control | [17] 102 % of control

Cc1cc(=O)[nH]c2c3sc4ccccc4c(=O)c3c3ccccc3c12
inactive: dose: 12.5 mg/kg/injection, schedule: Q04DX003 (ip), vehicle: Klucel (hydroxypropylcellulose) (HPC) 99 % of control | dose: 25.0 mg/kg/injection, schedule: Q04DX003 (ip), vehicle: Klucel (hydroxypropylcellulose) (HPC) 99 % of control | dose: 50.0 mg/kg/injection, schedule: Q04DX003 (ip), vehicle: Klucel (hydroxypropylcellulose) (HPC) 95 % of control | dose: 100.0 mg/kg/injection, schedule: Q04DX003 (ip), vehicle: Klucel (hydroxypropylcellulose) (HPC) 98 % of control

COC(=O)C1(C)CCCC2(C)C1CCC13C=C(C(C)C)C(CC1C(=O)O)CC23 (configuration not stated)
inactive: [4] 91 % of control | [5] 100 % of control

O=C1c2ccccc2C(=O)c2c1ccc(C(=O)O)c2-c1ccc2ccccc2c1
inactive: [16] 101 % of control | [17] 116 % of control | dose: 400.0 mg/kg/injection, schedule: Q01DX009 (ip), vehicle: Klucel (hydroxypropylcellulose) (HPC) 117 % of control

COc1cccc2c1C(=O)c1c(O)c3c(c(O)c1C2=O)C[C@@](O)(C(C)O)C[C@@H]3OC1CC(N2CCOCC2)C(O)C(C)O1 (some centres not stated)
inactive: dose: 25.0 micrograms/kg/injection, schedule: Q04DX003 (ip), vehicle: water 101 % of control | dose: 50.0 micrograms/kg/injection, schedule: Q04DX003 (ip), vehicle: water 97 % of control | dose: 100.0 micrograms/kg/injection, schedule: Q04DX003 (ip), vehicle: water 100 % of control and 118 % of control
